# Measured values: patent publication US10202361B2, “Pyridazinones as herbicides” (E I DU PONT DE NEMOURS AND COMPANY, priority 2014, dated 2019)
# Where two headings read alike, the source gives them in different places.
# Experiments:
# Assay type in all cases: in vivo
# [1] = tested on: chickweed (common chickweed, Stellaria media); test: Test C postemergence greenhouse herbicide test
# Text: At the same time, plants selected from these crop and weed species and also barley (winter barley, Hordeum vulgare), canarygrass (Phalaris minor), windgrass (Apera spica-venti), deadnettle (henbit deadnettle, Lamium amplexicaule), and chickweed (common chickweed, Stellaria media) were planted in pots containing Redi-Earth® planting medium (Scotts Company, 14111 Scottslawn Road, Marysville, Ohio 43041) comprising spaghnum peat moss, vermiculite, wetting agent and starter nutrients and treated with postemergence applications of test chemicals formulated in the same manner. Plants ranged in height from 2 to 18 cm (1- to 4-leaf stage) for postemergence treatments. Treated plants and controls were maintained in a greenhouse for 13 to 15 d, after which time all species were compared to controls and visually evaluated. Plant response ratings, summarized in Table C, are based on a scale of 0 to 100 where 0 is no effect and 100 is complete control. A dash (-) response means no test result.
# [2] = tested on: ducksalad (Heteranthera limosa); test: Test B flooded paddy test; details: Heteranthera limosa, 312 h; Flood, 125 g ai/ha; scale of 0 to 100, 0 is no effect, 100 is complete control; 13 to 15 d; read-out: Plant response rating, Ducksalad
# In short: (§1)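 Visual scores from 0 (no effect) to 100 (complete control) are relative to controls, assessed 13 to 15 d after treatment under greenhouse conditions. Treatment went into the paddy water of pots flooded 3 cm deep, with seedlings at the 2-leaf stage and flooding maintained.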
# [3] = tested on: sedge, umbrella (small-flower umbrella sedge, Cyperus difformis); test: Test B flooded paddy test; details: Cyperus difformis, 312 h; Flood, 125 g ai/ha; scale of 0 to 100, 0 is no effect, 100 is complete control; 13 to 15 d; read-out: Plant response rating, Sedge, Umbrella
# In short: as §1
# [4] = tested on: barnyardgrass (Echinochloa crus-galli); test: Test B flooded paddy test; details: Echinochloa crus-galli, 312 h; Flood, 125 g ai/ha; scale of 0 to 100, 0 is no effect, 100 is complete control; 13 to 15 d; read-out: Plant response rating, Barnyardgrass
# In short: as §1
# rice (Oryza sativa) = test: Test B flooded paddy test; details: Oryza sativa, 312 h; Flood, 125 g ai/ha; scale of 0 to 100, 0 is no effect, 100 is complete control; 13 to 15 d; read-out: Plant response rating, Rice
# In short: as §1
# [5] = tested on: nutsedge, yellow (yellow nutsedge, Cyperus esculentus); test: Test E pre-/postemergence greenhouse herbicide test; details: Preemergence, scale 0 to 100
# [6] = tested on: johnsongrass (Sorghum halepense); test: Test C pre-/postemergence greenhouse herbicide test; details: Sorghum halepense, Johnsongrass, read-out: Plant response rating; for pest or weed control at 31 g/ha: 31 g ai/ha; for pest or weed control at 62 g/ha: 62 g ai/ha; for pest or weed control at 125 g/ha: 125 g ai/ha; for pest or weed control at 250 g/ha: 250 g ai/ha
# In short: (§2)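 Plant response is scored on a 0–100 scale, where 100 means complete control, by visual comparison with controls 13 to 15 d after greenhouse treatment. Applications are made pre- and postemergence using a surfactant-containing, non-phytotoxic solvent formulation.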
# [7] = tested on: velvetleaf (Abutilon theophrasti); test: as above; details: Abutilon theophrasti, Velvetleaf, read-out: Plant response rating; for pest or weed control at 62 g/ha: 62 g ai/ha; for pest or weed control at 125 g/ha: 125 g ai/ha; for pest or weed control at 250 g/ha: 250 g ai/ha
# In short: as §2
# [8] = tested on: foxtail, giant (giant foxtail, Setaria faberii); test: as above; details: Setaria faberi, Foxtail, Giant, read-out: Plant response rating; for pest or weed control at 31 g/ha: 31 g ai/ha; for pest or weed control at 62 g/ha: 62 g ai/ha; for pest or weed control at 125 g/ha: 125 g ai/ha; for pest or weed control at 250 g/ha: 250 g ai/ha
# In short: as §2
# [9] = tested on: oilseed rape (Brassica napus); test: as above; details: Oilseed Rape
# In short: as §2
# [10] = tested on: nutsedge, yellow (yellow nutsedge, Cyperus esculentus); test: as above; details: Cyperus, Nutsedge, Yellow, read-out: Plant response rating; for pest or weed control at 31 g/ha: 31 g ai/ha; for pest or weed control at 62 g/ha: 62 g ai/ha; for pest or weed control at 125 g/ha: 125 g ai/ha; for pest or weed control at 250 g/ha: 250 g ai/ha
# In short: as §2
# [11] = tested on: crabgrass, large (large crabgrass Digitaria sanguinalis); test: Test E pre-/postemergence greenhouse herbicide test; details: Preemergence, scale 0 to 100
structure (smiles),measurement,setting,value
"COc1cc(=O)n(-c2ccc(C(F)(F)F)cc2)nc1Cc1ccnc(C(F)(F)F)c1 [Compound 16, 5-methoxy-2-[4-(trifluoromethyl)phenyl]-6-[[2-(trifluoromethyl)-4-pyridinyl]methyl]-3(2H)-pyridazinone]",Plant response rating,[1]; 31 g ai/ha,80
same,Plant response rating,[1]; 62 g ai/ha,90
same,Plant response rating,[1]; 125 g ai/ha,90
same,Plant response rating,[1]; 250 g ai/ha,98
same,pest or weed control at 125 g/ha,[2],20%
same,pest or weed control at 125 g/ha,[3],80%
same,pest or weed control at 125 g/ha,[4],45%
same,plant injury at 125 g/ha,rice (Oryza sativa),35%
same,"Plant response rating: Nutsedge, Yellow",[5]; 62 g ai/ha,20
same,"Plant response rating: Nutsedge, Yellow",[5]; 125 g ai/ha,20
same,"Plant response rating: Nutsedge, Yellow",[5]; 250 g ai/ha,40
same,pest or weed control at 31 g/ha,"[6]; post-emergence, Postemergence",10%
same,pest or weed control at 62 g/ha,"[6]; post-emergence, Postemergence",10%
same,pest or weed control at 125 g/ha,"[6]; post-emergence, Postemergence",20%
same,pest or weed control at 250 g/ha,"[6]; post-emergence, Postemergence",35%
same,pest or weed control at 31 g/ha,"[6]; pre-emergence, Preemergence",60%
same,pest or weed control at 62 g/ha,"[6]; pre-emergence, Preemergence",75%
same,pest or weed control at 125 g/ha,"[6]; pre-emergence, Preemergence",85%
same,pest or weed control at 250 g/ha,"[6]; pre-emergence, Preemergence",98%
same,pest or weed control at 31 g/ha,"[7]; post-emergence, Postemergence, 31 g ai/ha",25%
same,pest or weed control at 62 g/ha,"[7]; post-emergence, Postemergence",50%
same,pest or weed control at 125 g/ha,"[7]; post-emergence, Postemergence",60%
same,pest or weed control at 250 g/ha,"[7]; post-emergence, Postemergence",75%
same,pest or weed control at 62 g/ha,"[7]; pre-emergence, Preemergence",80%
same,pest or weed control at 125 g/ha,"[7]; pre-emergence, Preemergence",100%
same,pest or weed control at 250 g/ha,"[7]; pre-emergence, Preemergence",100%
same,pest or weed control at 31 g/ha,"[8]; post-emergence, Postemergence",15%
same,pest or weed control at 62 g/ha,"[8]; post-emergence, Postemergence",15%
same,pest or weed control at 125 g/ha,"[8]; post-emergence, Postemergence",30%
same,pest or weed control at 250 g/ha,"[8]; post-emergence, Postemergence",55%
same,pest or weed control at 31 g/ha,"[8]; pre-emergence, Preemergence",98%
same,pest or weed control at 62 g/ha,"[8]; pre-emergence, Preemergence",98%
same,pest or weed control at 125 g/ha,"[8]; pre-emergence, Preemergence",100%
same,pest or weed control at 250 g/ha,"[8]; pre-emergence, Preemergence",100%
same,Plant response rating,"[9]; Postemergence, 31 g ai/ha",60
same,Plant response rating,"[9]; Postemergence, 62 g ai/ha",60
same,Plant response rating,"[9]; Postemergence, 125 g ai/ha",80
same,Plant response rating,"[9]; Preemergence, 31 g ai/ha",65
same,Plant response rating,"[9]; Preemergence, 62 g ai/ha",100
same,Plant response rating,"[9]; Preemergence, 125 g ai/ha",100
same,Plant response rating,"[9]; Preemergence, 250 g ai/ha",100
same,pest or weed control at 31 g/ha,"[10]; post-emergence, Postemergence",5%
same,pest or weed control at 62 g/ha,"[10]; post-emergence, Postemergence",5%
same,pest or weed control at 125 g/ha,"[10]; post-emergence, Postemergence",5%
same,pest or weed control at 250 g/ha,"[10]; post-emergence, Postemergence",20%
same,pest or weed control at 31 g/ha,"[10]; pre-emergence, Preemergence",5%
same,pest or weed control at 62 g/ha,"[10]; pre-emergence, Preemergence",10%
same,pest or weed control at 125 g/ha,"[10]; pre-emergence, Preemergence",30%
same,pest or weed control at 250 g/ha,"[10]; pre-emergence, Preemergence",55%
same,"Plant response rating: Crabgrass, Large",[11]; 62 g ai/ha,100
same,"Plant response rating: Crabgrass, Large",[11]; 125 g ai/ha,100
same,"Plant response rating: Crabgrass, Large",[11]; 250 g ai/ha,100
"CCOc1cc(=O)n(-c2ccc(F)cc2)nc1Cc1ccnc(C(F)(F)F)c1 [Compound 25, 5-ethoxy-2-(4-fluorophenyl)-6-[[2-(trifluoromethyl)-4-pyridinyl]methyl]-3 (2H)-pyridazinone]",pest or weed control at 125 g/ha,[2],0%
same,pest or weed control at 125 g/ha,[3],75%
same,pest or weed control at 125 g/ha,[4],0%
same,plant injury at 125 g/ha,rice (Oryza sativa),0%
same,"Plant response rating: Nutsedge, Yellow",[5]; 8 g ai/ha,0
same,"Plant response rating: Nutsedge, Yellow",[5]; 16 g ai/ha,0
same,"Plant response rating: Nutsedge, Yellow",[5]; 31 g ai/ha,0
same,"Plant response rating: Nutsedge, Yellow",[5]; 62 g ai/ha,0
same,"Plant response rating: Nutsedge, Yellow",[5]; 125 g ai/ha,0
same,pest or weed control at 31 g/ha,"[6]; pre-emergence, Preemergence",65%
same,pest or weed control at 62 g/ha,"[6]; pre-emergence, Preemergence",75%
same,pest or weed control at 125 g/ha,"[6]; pre-emergence, Preemergence",90%
same,pest or weed control at 250 g/ha,"[6]; pre-emergence, Preemergence",98%
same,pest or weed control at 62 g/ha,"[7]; pre-emergence, Preemergence",100%
same,pest or weed control at 125 g/ha,"[7]; pre-emergence, Preemergence",70%
same,pest or weed control at 250 g/ha,"[7]; pre-emergence, Preemergence",95%
same,pest or weed control at 31 g/ha,"[8]; pre-emergence, Preemergence",100%
same,pest or weed control at 62 g/ha,"[8]; pre-emergence, Preemergence",100%
same,pest or weed control at 125 g/ha,"[8]; pre-emergence, Preemergence",100%
same,pest or weed control at 250 g/ha,"[8]; pre-emergence, Preemergence",100%
same,Plant response rating,"[9]; Preemergence, 31 g ai/ha",50
same,Plant response rating,"[9]; Preemergence, 62 g ai/ha",95
same,Plant response rating,"[9]; Preemergence, 125 g ai/ha",95
same,Plant response rating,"[9]; Preemergence, 250 g ai/ha",95
same,pest or weed control at 31 g/ha,"[10]; pre-emergence, Preemergence",10%
same,pest or weed control at 62 g/ha,"[10]; pre-emergence, Preemergence",5%
same,pest or weed control at 125 g/ha,"[10]; pre-emergence, Preemergence",15%
same,pest or weed control at 250 g/ha,"[10]; pre-emergence, Preemergence",45%
same,"Plant response rating: Crabgrass, Large",[11]; 8 g ai/ha,0
same,"Plant response rating: Crabgrass, Large",[11]; 16 g ai/ha,0
same,"Plant response rating: Crabgrass, Large",[11]; 31 g ai/ha,75
same,"Plant response rating: Crabgrass, Large",[11]; 62 g ai/ha,100
same,"Plant response rating: Crabgrass, Large",[11]; 125 g ai/ha,100
